Patent US20160264565A1, “CRYSTALLINE DASATINIB PROCESS” (SHILPA MEDICARE LIMITED, priority 2013, published 2016)

Legend:
[1] = Stability on handling and storage; format: physicochemical; conditions: handle and store for longer time
Description: (§1) This stable form thus, offers various advantages in terms of storage, shelf life and favorable impurity profile.
(§2) The new stable crystalline Form-SDI is characterized by 3-methylbutan-1-ol content in range of 10-16% w/w. […] 3-methylbutan-1-ol content even on drying for more than 20 hrs at 60-65° C. This offers advantages for large scale manufacturing in terms of handling, storage, shelf life and favorable impurity profile.

[2] = Stability of the crystal form on drying; format: physicochemical; conditions: drying for more than 20 hrs at 60-65° C.
Description: as §1, §2

change in morphology and physicochemical characteristics on handling and storage for longer time ([1]; listed as Form-SDI): without any measurable change
stoichiometry (3-methylbutan-1-ol content) on drying [2]: retains its stoichiometry
SMILES: Cc1nc(Nc2ncc(C(=O)Nc3c(C)cccc3Cl)s2)cc(N2CCN(CCO)CC2)n1 [Crystalline Form-SDI of Dasatinib, N-(2-chloro-6-methylphenyl)-2-[[6-[4-(2-hydroxyethyl)-1-piperazinyl]-2-methyl-4-pyrimidinyl]amino]-5-thiazolecarboxamide]
change in morphology and physicochemical characteristics on handling and storage for longer time [1]: without any significant or measurable change
